According to patent US12352767B2, “Method of treating cognitive decline associated with neurological diseases based on a decrease in FLT4 expression or activity” (University of Virginia Patent Foundation, priority 2018, dated 2025):
Entries after “also recorded” stand apart in the source; their conditions may differ.

Experiments:
[1] = test system: meningeal lymphatic drainage; experiment: Drainage of CSF tracer (OVA-A647) into deep cervical lymph nodes; type: in vivo, mice; conditions: 7 days after Visudyne/photoconversion, 2 h after i.c.m. tracer, vs control groups
Method: (§1) Mice were anaesthetized by intraperitoneal (i.p.) injection of a mixed solution of ketamine (100 mg/Kg) and xylazine (10 mg/Kg) in saline. The skin of the neck was shaved and cleaned with iodine and 70% ethanol, ophthalmic solution placed on the eyes to prevent drying and the mouse's head was secured in a stereotaxic frame. After making a skin incision, the muscle layers were retracted and the cisterna magna exposed. Using a Hamilton syringe (coupled to a 33-gauge needle), the volume of the desired tracer solution was injected into the CSF-filled cisterna magna compartment. For brain CSF influx and lymphatic drainage experiments, 2 or 5 μL of Alexa Fluor® 594 or 647 conjugated OVA (Thermo Fisher Scientific), at 0.5 mg/mL in artificial CSF (#597316, Harvard Apparatus U.K.), were injected at a rate of 2.5 μL/min. After injecting, the syringe was left in place for additional 2 min to prevent back-flow of CSF.

aquaporin 4 (AQP4) = experiment: AQP4 / CD31 immunostaining of brain sections; type: in vivo, mice
Method: Mouse fresh frozen brain sections were fixed with 4% PFA for 30 min, rinsed in dH2O and submitted to a heat-induced antigen retrieval step with 10 mM citrate buffer for 20 min. […] The steps described next were generally applied for mouse fresh frozen or fixed free-floating brain sections, lymph node sections on slide, meningeal whole-mounts and human fixed tissue. For immunofluorescence staining, tissue was rinsed in PBS and washed with PBS 0.5% Triton-X-100 for 10 min, followed by incubation in PBS 0.5% Triton-X-100 containing 0.5% of normal serum (either goat or chicken) and 0.5% bovine serum albumin (BSA) for 1 hour at RT. This blocking step was followed by incubation with appropriate dilutions of primary antibodies: anti-LYVE-1 eFluor 660 or anti-LYVE-1 Alexa Fluor® 488 (eBioscience, clone ALY7, 1:200), anti-CD31 (Millipore Sigma, MAB1398Z, clone 2H8, 1:200), anti-IBA1 (Abcam, ab5076, 1:300), anti-GFAP (Millipore Sigma, ab5541, 1:300), anti-AQP4 (Millipore Sigma, A5971, 1:200), anti-Ki67 (Abcam, ab15580, 1:100), anti-hAβ1-16 (BioLegend, clone 6E10, 1:200), anti-Aβ1-37/42 (Cell Signaling, clone D54D2, 1:300) and anti-GFP (Abcam, ab6556, 1:300) in PBS 0.5% Triton-X-100 containing 0.5% of normal serum and 0.5% BSA overnight at 4° C. Meningeal whole-mounts or tissue sections were then washed 3 times for 5 min at RT in PBS 0.5% Triton-X-100 followed by incubation with the appropriate chicken, goat or donkey Alexa Fluor® 488, 546, 594, or 647 anti-rat, -goat, -rabbit, -mouse or -Armenian hamster IgG antibodies (Thermo Fisher Scientific, 1:500) for 1 or 2 hours at RT in PBS 0.5% Triton-X-100. After an incubation for 10 min with 1:2000 DAPI in PBS, the tissue was washed 3 times for 5 min with PBS at RT and mounted with Aqua-Mount (Lerner) and glass coverslips. Preparations were stored at 4° C. for no more than 1 week until images were acquired either using a widefield microscope (Leica) or a confocal microscope (FV1200 Laser Scanning Confocal Microscope, Olympus). Quantitative analysis using the acquired images was performed on FIJI software. For the assessment of brain fluorescent tracer influx or efflux or AQP4 coverage, 10 representative brain sections were imaged using the widefield microscope and the mean area fraction was calculated using Microsoft Excel. […] Area of coverage by CD31^+ blood vessels and AQP4^+ astrocyte endfeet in the brain cortex was achieved by calculating the mean value of 10 representative fields (5 images in each cerebral hemisphere) per sample acquired using the confocal microscope.

[2] = test system: meningeal lymphatic vessels; experiment: Meningeal whole-mount immunostaining (LYVE-1/CD31): lymphatic vessel area and diameter, blood vessel coverage
Method: Selective ablation of the meningeal lymphatic vessels was achieved by i.c.m. injection and transcranial photoconversion of Visudyne® (verteporfin for injection, Valeant Ophtalmics). Visudyne was reconstituted following manufacturer instructions and 5 μL was injected i.c.m. following the previously described procedure. […] Each spot was irradiated with a light dose of 50 J/cm^2 at an intensity of 600 mW/cm^2 for a total of 83 s. Controls were injected with the same volume of Visudyne (without the photoconversion step) or sterile saline plus photoconversion (vehicle/photoconversion). The scalp skin was then sutured, the mice were subcutaneously injected with ketoprofen (2 mg/Kg) and allowed to recover on a heating pad until fully awake.
A hydrogel of 1.4% hyaluronic acid and 3% methylcellulose alone (vehicle) or with 200 ng/mL of encapsulated human VEGF-C (PeproTech) or VEGF-C156S (R&D Systems) was prepared as described elsewhere^49. Briefly, lyophilized, sterile methylcellulose (4000 cP, Sigma-Aldrich) and sterile hyaluronic acid (1500-1800 kDa, Sigma-Aldrich) were sequentially dissolved in sterile 0.1 M phosphate buffered saline (PBS) at 4° C. overnight. Lyophilized VEGF-C or VEGF-C156S were resuspended as particulate at 2000 ng/mL in 0.5% sterile methylcellulose in PBS. The particulate solution, or vehicle 0.5% methylcellulose, was mixed into the hydrogel pre-solution at 1:10, and loaded into a syringe for gelation at 37° C. […] The hydrogels were prepared on the day of the experiment and kept warm inside the individual syringes until applied onto the mouse's skull. […] An incision was made in the scalp skin and the skull was thinned at the junction of all sinuses and above the transverse sinus. The shear-thinning properties of the polymers allowed the extrusion of 100 μL of each hydrogel solution from the syringe into the thinned skull surface. The scalp skin was then sutured on top of the solidified hydrogel, the mice were subcutaneously injected with ketoprofen (2 mg/Kg) and allowed to recover on a heating pad until fully awake.
Mice were given a lethal dose of anesthetics by intraperitoneal (i.p.) injection of Euthasol (10% v/v in saline). When needed, CSF was collected from the cisterna magna using a 0.5 mm diameter borosilicate glass pipette with internal filament and immediately stored at −80° C. Mice were then transcardially perfused with ice cold PBS with heparin (10 U/mL). Deep cervical lymph nodes were dissected and drop fixed in 4% paraformaldehyde (PFA) for 12 hours at 4° C. After stripping the skin and muscle from the bone the head was collected and drop fixed in 4% PFA. […] The brains were kept in 4% PFA for additional 24 hours (48 hours in total). […]

mice = experiment: Morris water maze test; type: in vivo; conditions: Visudyne/photoconversion twice, adult mice
Method: The Morris water maze test was performed as described before^53, but with modifications. Mice were transported to the behavior room to habituate at least 30 min before starting the test. The MWM test consisted of 4 days of acquisition, 1 day of probe trial and 2 days of reversal. In the acquisition, mice performed four trials per day, for 4 consecutive days, to find a hidden 10-cm diameter platform located 1 cm below the water surface in a pool 1 m in diameter. Tap water was made opaque with nontoxic tempera white paint and the water temperature was kept at 23±1° C. A dim light source was placed within the testing room and only distal visual cues were available above each quadrant of the swimming pool to aid in the spatial navigation and location of the submerged platform. The latency to platform, e.g., the time required by the mouse to find and climb onto the platform, was recorded for up to 60 s. Each mouse was allowed to remain on the platform for 20 s and was then moved from the maze to its home cage. […] During the acquisition, probe and reversal, data were recorded using the EthoVision automated tracking system (Noldus Information Technology). The mean latency (in s) of the four trials was calculated for each day of test. The % of time in the platform quadrant was calculated for the probe trial. […] The mean % of allocentric navigation of four trials was calculated for each day.

brain parenchyma = experiment: Brain perfusion/influx by CSF tracer OVA-A647 (brain sections); type: in vivo, mice; conditions: 7 days after Visudyne/photoconversion, vs control groups
Method: as §1

[3] = Visudyne-treated vs vehicle-treated mice

Question: Which “OVA-A647 drainage from CSF into dCLNs (area fraction)” value [1] does the source give for verteporfin [Visudyne] here?
Answer: significant reduction; also recorded: significantly less amount of tracer

Question: And the “area of AQP4+ astrocytic endfeet in brain cortex” value (aquaporin 4 (AQP4); Visudyne vs vehicle)?
Answer: No changes were observed

Question: And the “area of CD31+ blood vessels in brain cortex” value (aquaporin 4 (AQP4); Visudyne vs vehicle)?
Answer: No changes were observed

Question: And the “ratio between area of AQP4+ and of CD31+” value (aquaporin 4 (AQP4); Visudyne vs vehicle)?
Answer: No changes were observed

Question: And the “overall brain coverage by AQP4 (area fraction)” value (aquaporin 4 (AQP4); [3])?
Answer: could not detect changes; also recorded: no differences between groups

Question: What about the “perivascular localization of AQP4+ astrocytic endfeet” value (aquaporin 4 (AQP4); [3]) of the same substance?
Answer: could not detect changes

Question: What about the “ablation of meningeal lymphatics (LYVE-1+ lymphatic vessels)” value ([2]; Visudyne 5 μL i.c.m. + transcranial photoconversion, adult mice) of the same substance?
Answer: loss of meningeal vessel staining; also recorded: effective ablation of meningeal lymphatics

Question: What about the “duration of meningeal lymphatic ablation” value ([2]; Visudyne i.c.m. + transcranial photoconversion) of the same substance?
Answer: at least 7 days

Question: What about the MWM spatial learning (mice) of the same substance?
Answer: significant deficits in spatial learning

Question: And the “brain perfusion by CSF tracer (OVA-A647 area fraction in brain sections)” value (brain parenchyma)?
Answer: significantly lower; also recorded: significant decrease
